Results reported in ChEMBL document CHEMBL1201862, “PubChem BioAssay data set” (2004).
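Step 1: Grow cells in 96-well plates. Step 2: Expose to compound for 48 hours at 5 concentrations. Step 3: Interpolate endpoints linearly; if unreached, use highest concentration. At the GI50, growth is halved.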 The source made the active and inactive calls. Rule as the data show it: active = GI50 up to about 1.1 µM and inactive = higher.

Assays:
Test in all cases: DTP human tumour cell line panel, 48 h
SK-MEL-5 = tested on: SK-MEL-5
NCI-H226 = tested on: NCI-H226
M14 = tested on: M14
NCI-H460 = tested on: NCI-H460
COLO 205 = tested on: COLO 205
SNB-75 = tested on: SNB-75
SF-539 = tested on: SF-539
DMS-273 = tested on: DMS-273
UACC-257 = tested on: UACC-257
UO-31 = tested on: UO-31
SNB-19 = tested on: SNB-19
ACHN = tested on: ACHN
A549 = tested on: A549
M19-MEL = tested on: M19-MEL
OVCAR-4 = tested on: OVCAR-4
HOP-92 = tested on: HOP-92
Hs-578T = tested on: Hs-578T
DU-145 = tested on: DU-145
T47D = tested on: T47D
PC-3 = tested on: PC-3

Measured: GI50

N=C1CSC2=NC3=C(CCC/C3=C\c3ccccc3)C(c3ccccc3)N12 (stereo unspecified)
inactive: SK-MEL-5 6.31 µM | NCI-H226 6.38 µM | M14 3.3 µM | NCI-H460 3.42 µM | COLO 205 8.89 µM | SNB-75 10.6 µM | SF-539 6 µM | DMS-273 3.8 µM | UACC-257 11.5 µM | UO-31 11.2 µM | SNB-19 5.94 µM | ACHN 11.9 µM | A549 4.07 µM | M19-MEL 5.19 µM

N#CCC(=O)N1CCCOCCC1
inactive: OVCAR-4 38.6 µM | SK-MEL-5 > 100 µM | M14 > 100 µM | NCI-H460 > 100 µM | COLO 205 21.8 µM | SF-539 > 100 µM | DMS-273 > 100 µM | UACC-257 > 100 µM | UO-31 > 100 µM | SNB-19 > 100 µM | ACHN > 100 µM | A549 > 100 µM | M19-MEL > 100 µM

CC1=CC(=O)N2C(OC[C@@H]2c2ccccc2)O1 (stereo partly specified)
inactive: OVCAR-4 > 100 µM | SK-MEL-5 > 100 µM | NCI-H226 > 100 µM | M14 > 100 µM | NCI-H460 > 100 µM | COLO 205 > 100 µM | SNB-75 > 100 µM | SF-539 > 100 µM | UACC-257 > 100 µM | HOP-92 > 100 µM | UO-31 > 100 µM | SNB-19 > 100 µM | ACHN > 100 µM | A549 > 100 µM | M19-MEL > 100 µM

Cc1ccccc1-n1c(N)c(-c2nc3ccccc3[nH]2)sc1=S
inactive: OVCAR-4 28.8 µM | SK-MEL-5 20.8 µM | NCI-H226 36 µM | M14 20.5 µM | COLO 205 22.6 µM | SNB-75 29.4 µM | SF-539 24.1 µM | DMS-273 18.9 µM | UACC-257 19.3 µM | UO-31 23.8 µM | SNB-19 24.9 µM | ACHN 35 µM | A549 31.3 µM | M19-MEL 23.3 µM

CN(C)c1ccccc1CC(c1c[nH]c2ccccc12)c1c[nH]c2ccccc12
inactive: OVCAR-4 9.06 µM | SK-MEL-5 15.3 µM | NCI-H226 12.1 µM | M14 11.4 µM | NCI-H460 4.72 µM | COLO 205 2.82 µM | SNB-75 10.3 µM | SF-539 17.2 µM | DMS-273 13 µM | UACC-257 16.2 µM | UO-31 10.9 µM | SNB-19 14.4 µM | ACHN 8.36 µM | A549 10.2 µM | M19-MEL 14.9 µM

C#Cc1c(C)c(/C=C/C(C)=C/C(=O)OC)n(C)c1C
inactive: OVCAR-4 82.2 µM | NCI-H226 > 100 µM | M14 > 100 µM | COLO 205 > 100 µM | SF-539 > 100 µM | DMS-273 88.7 µM | UACC-257 > 100 µM | HOP-92 25 µM | UO-31 > 100 µM | SNB-19 > 100 µM | ACHN 43.7 µM | A549 > 100 µM | M19-MEL > 100 µM

Oc1ncnc2c1CCCN2
inactive: SK-MEL-5 > 100 µM | M14 > 100 µM | COLO 205 > 100 µM | SNB-75 > 100 µM | UACC-257 > 100 µM | HOP-92 > 100 µM | UO-31 > 100 µM | SNB-19 > 100 µM | ACHN > 100 µM | A549 > 100 µM | M19-MEL > 100 µM

CCC1C(C)c2c([nH]c3ccccc23)C2C(=O)N(c3ccccc3)C(=O)C21 (stereo unspecified)
inactive: OVCAR-4 13.4 µM | SK-MEL-5 15.4 µM | M14 17.8 µM | NCI-H460 14.3 µM | COLO 205 16.1 µM | SNB-75 11.4 µM | SF-539 18.7 µM | DMS-273 17.8 µM | ACHN 18.2 µM | A549 17.3 µM | M19-MEL 15.8 µM

CC(C)c1cc2c(cc1S(=O)(=O)O)[C@@]1(C)CCC[C@@](C)(C(=O)O)C1CC2 (stereo partly specified)
inactive: OVCAR-4 > 100 µM | SK-MEL-5 > 100 µM | NCI-H226 > 100 µM | M14 > 100 µM | Hs-578T > 100 µM | NCI-H460 > 100 µM | COLO 205 > 100 µM | SNB-75 > 100 µM | SF-539 > 100 µM | DU-145 > 100 µM | T47D > 100 µM | UACC-257 > 100 µM | HOP-92 > 100 µM | PC-3 > 100 µM | UO-31 > 100 µM | SNB-19 > 100 µM | ACHN > 100 µM | A549 > 100 µM

O=C(NCCCCNc1cccccc1=O)OCc1ccccc1
inactive: OVCAR-4 > 100 µM | SK-MEL-5 48.1 µM | NCI-H226 > 100 µM | M14 > 100 µM | NCI-H460 > 100 µM | COLO 205 > 100 µM | SNB-75 > 100 µM | DMS-273 > 100 µM | UACC-257 > 100 µM | UO-31 58.5 µM | SNB-19 > 100 µM | ACHN > 100 µM | A549 > 100 µM | M19-MEL > 100 µM

NCCCN1c2ccccc2Sc2ccc(Cl)cc21
inactive: OVCAR-4 > 10 µM | SK-MEL-5 > 4.02 µM | NCI-H226 9.95 µM | M14 1.73 µM | Hs-578T 5.01 µM | NCI-H460 3.33 µM | COLO 205 1.81 µM | SNB-75 > 6.98 µM | SF-539 5.22 µM | DU-145 > 10 µM | T47D > 5.36 µM | UACC-257 > 6.19 µM | HOP-92 > 10 µM | PC-3 4.17 µM | UO-31 7.8 µM | SNB-19 > 8.45 µM | ACHN 6.18 µM | A549 4.59 µM

COc1ccc(-c2cc(=O)c3cc(O)ccc3o2)c(OC)c1OC
inactive: OVCAR-4 27.2 µM | NCI-H226 41.6 µM | M14 37.9 µM | COLO 205 75.2 µM | SNB-75 23.1 µM | SF-539 68.5 µM | UACC-257 32.2 µM | HOP-92 32.4 µM | SNB-19 47.4 µM | ACHN 19.5 µM | A549 35.6 µM | M19-MEL 45.3 µM

O=[N+]([O-])c1cc2no[n+]([O-])c2cc1N1CCCCC1
inactive: OVCAR-4 2.25 µM | SK-MEL-5 15.3 µM | NCI-H226 39.8 µM | M14 2.62 µM | Hs-578T 25.1 µM | NCI-H460 15.6 µM | COLO 205 5.37 µM | SNB-75 2.39 µM | SF-539 2.39 µM | DU-145 2.45 µM | T47D 1.39 µM | UACC-257 8.24 µM | HOP-92 2.4 µM | PC-3 2.16 µM | UO-31 2.07 µM | SNB-19 16.3 µM | ACHN 2.58 µM | A549 11.3 µM

CC1(C)OC(=O)C(C)(C)OC1=O
inactive: OVCAR-4 > 100 µM | SK-MEL-5 > 100 µM | NCI-H226 > 100 µM | M14 > 100 µM | Hs-578T > 100 µM | NCI-H460 > 100 µM | COLO 205 > 100 µM | SNB-75 > 100 µM | SF-539 > 100 µM | DU-145 > 100 µM | T47D > 100 µM | UACC-257 > 100 µM | HOP-92 > 100 µM | PC-3 > 100 µM | UO-31 > 100 µM | SNB-19 > 100 µM | ACHN > 100 µM | A549 > 100 µM

O=C(/C=C/c1cccc(Br)c1)N1CCN(CCOC(c2ccccc2)c2ccccc2)CC1
inactive: OVCAR-4 63.2 µM | SK-MEL-5 16 µM | NCI-H226 45 µM | M14 62.2 µM | Hs-578T > 100 µM | NCI-H460 31.8 µM | COLO 205 17.5 µM | SNB-75 26.2 µM | SF-539 18.4 µM | DU-145 37.5 µM | T47D 23.6 µM | UACC-257 63.5 µM | HOP-92 23 µM | PC-3 44.1 µM | UO-31 25.4 µM | SNB-19 > 100 µM | ACHN 57.3 µM | A549 43.2 µM

CC(=O)OCC1OC(OC2CC3C(C)(C)C(O)CC[C@]3(C)C3CCC45CC4(CCC5[C@@H](C)CC(O)C(O)C(C)(C)O)[C@]23C)C(O)C(O)C1O (stereo partly specified)
inactive: OVCAR-4 > 10 µM | SK-MEL-5 > 10 µM | NCI-H226 > 10 µM | M14 > 10 µM | Hs-578T > 10 µM | NCI-H460 > 10 µM | COLO 205 > 10 µM | SNB-75 > 10 µM | SF-539 > 10 µM | DU-145 > 10 µM | T47D > 10 µM | UACC-257 > 10 µM | HOP-92 > 10 µM | PC-3 > 10 µM | UO-31 > 10 µM | SNB-19 > 10 µM | ACHN > 10 µM | A549 > 10 µM

CN(Cc1cc(C(C)(C)C)cc(Br)c1O)Cc1cc(C(C)(C)C)cc(Br)c1O
inactive: OVCAR-4 5.08 µM | SK-MEL-5 2.76 µM | NCI-H226 4.18 µM | M14 4.28 µM | Hs-578T 2.65 µM | NCI-H460 1.87 µM | COLO 205 12.2 µM | SNB-75 3.66 µM | SF-539 2.74 µM | DU-145 6.1 µM | T47D 3.5 µM | UACC-257 2.48 µM | HOP-92 4.23 µM | PC-3 2.96 µM | UO-31 3.61 µM | SNB-19 6.61 µM | ACHN 2.94 µM | A549 3.52 µM

CC(CC=O)Nc1nn2c(=O)c3ccccc3nc2s1 (stereo unspecified)
inactive: OVCAR-4 > 100 µM | SK-MEL-5 > 100 µM | NCI-H226 > 100 µM | M14 > 100 µM | Hs-578T > 100 µM | NCI-H460 > 100 µM | COLO 205 > 100 µM | SNB-75 > 100 µM | SF-539 > 100 µM | DU-145 > 100 µM | T47D > 100 µM | UACC-257 > 100 µM | HOP-92 > 100 µM | PC-3 > 100 µM | UO-31 18.2 µM | SNB-19 > 100 µM | ACHN > 100 µM | A549 > 100 µM
